± gives the expanded uncertainty stated by the source.
Assays:
[1] = excess molar enthalpy (molar enthalpy of mixing); xn = mol fraction of the nth substance listed; settings: 298.15 K, 101 kPa, Liquid, 2-drop calorimetry
[2] = xn = mol fraction of the nth substance listed; settings: 101 kPa, Liquid; for speed of sound: Linear variable-path acoustic interferometer; for mass density: Vibrating tube method

Cc1ccncc1 [4-methylpyridine] + CCn1cc[n+](C)c1.F[B-](F)(F)F
[1]
Settings | excess molar enthalpy [kcal/mol]
x2 = 0.111 | -0.0311 ± 0.000741
x2 = 0.1679 | -0.0454 ± 0.00103
x2 = 0.2098 | -0.0558 ± 0.00124
x2 = 0.2387 | -0.0624 ± 0.00139
x2 = 0.2909 | -0.0731 ± 0.00163
x2 = 0.3267 | -0.0788 ± 0.00174
x2 = 0.379 | -0.0873 ± 0.00191
x2 = 0.4167 | -0.0925 ± 0.00203
x2 = 0.4834 | -0.0997 ± 0.00217
x2 = 0.5267 | -0.104 ± 0.00227
x2 = 0.5908 | -0.106 ± 0.00232
x2 = 0.615 | -0.106 ± 0.00232
x2 = 0.6786 | -0.101 ± 0.0022
x2 = 0.7234 | -0.0974 ± 0.00213
x2 = 0.7945 | -0.0841 ± 0.00184
x2 = 0.8346 | -0.0723 ± 0.0016
x2 = 0.889 | -0.0539 ± 0.00122
x2 = 0.9267 | -0.0389 ± 0.000908

[2]
Settings | mass density, 293.15 K [kg/m3] | mass density, 298.15 K [kg/m3] | mass density, 303.15 K [kg/m3] | mass density, 308.15 K [kg/m3] | speed of sound, 293.15 K [m/s] | speed of sound, 298.15 K [m/s] | speed of sound, 303.15 K [m/s] | speed of sound, 308.15 K [m/s]
x2 = 0.1211 | 1022.19 ± 0.32 | 1017.25 ± 0.31 | 1012.54 ± 0.31 | 1008.4 ± 0.31 | 1485 ± 1.9 | 1464.4 ± 1.9 | 1448.9 ± 1.9 | 1428.2 ± 1.9
x2 = 0.1734 | 1048.92 ± 0.36 | 1043.93 ± 0.36 | 1039.26 ± 0.36 | 1035.43 ± 0.35 | 1499.5 ± 1.9 | 1479.3 ± 1.9 | 1464.5 ± 1.9 | 1443.7 ± 1.9
x2 = 0.2215 | 1072.35 ± 0.41 | 1067.26 ± 0.41 | 1062.71 ± 0.4 | 1059.13 ± 0.4 | 1512.2 ± 2 | 1492.7 ± 2 | 1478.1 ± 2 | 1457.6 ± 1.9
x2 = 0.2738 | 1096.49 ± 0.47 | 1091.32 ± 0.46 | 1086.94 ± 0.46 | 1083.63 ± 0.45 | 1525 ± 2 | 1506.5 ± 2 | 1492.3 ± 2 | 1472.9 ± 2
x2 = 0.3226 | 1117.74 ± 0.52 | 1112.6 ± 0.51 | 1108.38 ± 0.51 | 1105.18 ± 0.5 | 1536.7 ± 2.1 | 1519.3 ± 2 | 1505.1 ± 2 | 1486.3 ± 2
x2 = 0.3709 | 1137.61 ± 0.57 | 1132.52 ± 0.57 | 1128.45 ± 0.56 | 1125.39 ± 0.56 | 1548 ± 2.1 | 1531.8 ± 2.1 | 1517.3 ± 2.1 | 1499.9 ± 2.1
x2 = 0.4215 | 1157.13 ± 0.64 | 1152.2 ± 0.63 | 1148.31 ± 0.62 | 1145.11 ± 0.62 | 1558.7 ± 2.1 | 1543.8 ± 2.1 | 1529.7 ± 2.1 | 1514.7 ± 2.1
x2 = 0.4721 | 1175.31 ± 0.7 | 1170.56 ± 0.69 | 1166.92 ± 0.69 | 1163.65 ± 0.68 | 1568.6 ± 2.2 | 1554.4 ± 2.2 | 1541.8 ± 2.2 | 1528.9 ± 2.1
x2 = 0.5207 | 1191.56 ± 0.76 | 1186.91 ± 0.76 | 1183.59 ± 0.75 | 1180.05 ± 0.75 | 1576.9 ± 2.2 | 1564.8 ± 2.2 | 1553 ± 2.2 | 1542.6 ± 2.2
x2 = 0.5728 | 1207.52 ± 0.84 | 1203.15 ± 0.83 | 1200.15 ± 0.82 | 1196.14 ± 0.82 | 1585.7 ± 2.3 | 1573.8 ± 2.2 | 1564.2 ± 2.2 | 1557.1 ± 2.2
x2 = 0.6218 | 1221.15 ± 0.9 | 1217.12 ± 0.9 | 1214.3 ± 0.89 | 1209.95 ± 0.89 | 1593.2 ± 2.3 | 1582.3 ± 2.3 | 1574.8 ± 2.3 | 1570.3 ± 2.3
x2 = 0.6731 | 1234.15 ± 0.98 | 1230.36 ± 0.97 | 1227.81 ± 0.97 | 1222.97 ± 0.96 | 1600.4 ± 2.3 | 1589.4 ± 2.3 | 1585.1 ± 2.3 | 1582.7 ± 2.3
x2 = 0.7224 | 1245.2 ± 1.1 | 1241.78 ± 1 | 1239.32 ± 1 | 1234.16 ± 1 | 1607 ± 2.4 | 1595.7 ± 2.4 | 1594.6 ± 2.4 | 1593.7 ± 2.4
x2 = 0.7743 | 1255.49 ± 1.1 | 1252.28 ± 1.1 | 1249.84 ± 1.1 | 1244.37 ± 1.1 | 1613 ± 2.4 | 1601.8 ± 2.4 | 1602.4 ± 2.4 | 1603.4 ± 2.4
x2 = 0.8203 | 1263.45 ± 1.2 | 1260.27 ± 1.2 | 1257.85 ± 1.2 | 1252.23 ± 1.2 | 1617.3 ± 2.5 | 1606.3 ± 2.4 | 1608.5 ± 2.5 | 1609.8 ± 2.5
x2 = 0.8717 | 1270.96 ± 1.3 | 1267.85 ± 1.3 | 1265.24 ± 1.3 | 1259.65 ± 1.2 | 1622.3 ± 2.5 | 1610.6 ± 2.5 | 1612.2 ± 2.5 | 1612.8 ± 2.5
x2 = 0.9111 | 1275.81 ± 1.3 | 1272.56 ± 1.3 | 1269.8 ± 1.3 | 1264.37 ± 1.3 | 1625.3 ± 2.5 | 1613.4 ± 2.5 | 1613.3 ± 2.5 | 1611.5 ± 2.5
x2 = 0.9312 | 1278 ± 1.4 | 1274.64 ± 1.4 | 1271.69 ± 1.4 | 1266.47 ± 1.3 | 1626.7 ± 2.5 | 1614.9 ± 2.5 | 1613.3 ± 2.5 | 1609.7 ± 2.5

c1ccncc1 [pyridine] + CCn1cc[n+](C)c1.F[B-](F)(F)F
[1]
Settings | excess molar enthalpy [kcal/mol]
x2 = 0.1025 | -0.0352 ± 0.000813
x2 = 0.1335 | -0.0449 ± 0.00103
x2 = 0.1727 | -0.0555 ± 0.00124
x2 = 0.2121 | -0.067 ± 0.00148
x2 = 0.2654 | -0.0785 ± 0.00172
x2 = 0.3078 | -0.087 ± 0.00191
x2 = 0.3587 | -0.0968 ± 0.00213
x2 = 0.4112 | -0.101 ± 0.00222
x2 = 0.4632 | -0.107 ± 0.00234
x2 = 0.4956 | -0.108 ± 0.00237
x2 = 0.5325 | -0.108 ± 0.00237
x2 = 0.589 | -0.106 ± 0.00232
x2 = 0.6312 | -0.1 ± 0.0022
x2 = 0.6983 | -0.091 ± 0.00198
x2 = 0.7567 | -0.0806 ± 0.00177
x2 = 0.8078 | -0.0667 ± 0.00148
x2 = 0.8654 | -0.0505 ± 0.00115
x2 = 0.9123 | -0.0344 ± 0.000813

[2]
Settings | mass density, 293.15 K [kg/m3] | mass density, 298.15 K [kg/m3] | mass density, 303.15 K [kg/m3] | mass density, 308.15 K [kg/m3] | speed of sound, 293.15 K [m/s] | speed of sound, 298.15 K [m/s] | speed of sound, 303.15 K [m/s] | speed of sound, 308.15 K [m/s]
x2 = 0.1225 | 1057.86 ± 0.35 | 1053.89 ± 0.35 | 1049.31 ± 0.34 | 1044.82 ± 0.34 | 1486.4 ± 1.9 | 1466.7 ± 1.9 | 1450.1 ± 1.9 | 1431.5 ± 1.9
x2 = 0.1781 | 1085.74 ± 0.4 | 1081.91 ± 0.4 | 1077.49 ± 0.39 | 1073.08 ± 0.39 | 1504.8 ± 1.9 | 1486.7 ± 1.9 | 1470.9 ± 1.9 | 1453.6 ± 1.9
x2 = 0.2349 | 1111.05 ± 0.46 | 1107.24 ± 0.45 | 1102.93 ± 0.45 | 1098.58 ± 0.44 | 1521.5 ± 2 | 1505.5 ± 2 | 1489.4 ± 2 | 1473.3 ± 2
x2 = 0.2787 | 1128.56 ± 0.5 | 1124.75 ± 0.5 | 1120.49 ± 0.49 | 1116.15 ± 0.49 | 1533.4 ± 2 | 1517.7 ± 2 | 1502.2 ± 2 | 1487.6 ± 2
x2 = 0.3215 | 1144.24 ± 0.55 | 1140.37 ± 0.54 | 1136.25 ± 0.54 | 1131.85 ± 0.53 | 1544 ± 2.1 | 1528.8 ± 2 | 1513.9 ± 2 | 1499.2 ± 2
x2 = 0.3716 | 1160.99 ± 0.6 | 1156.91 ± 0.6 | 1152.96 ± 0.59 | 1148.63 ± 0.59 | 1555.6 ± 2.1 | 1541.1 ± 2.1 | 1525 ± 2.1 | 1512.2 ± 2.1
x2 = 0.4229 | 1176.47 ± 0.66 | 1172.38 ± 0.66 | 1168.48 ± 0.65 | 1164.16 ± 0.64 | 1565.7 ± 2.1 | 1550.9 ± 2.1 | 1536.1 ± 2.1 | 1523.5 ± 2.1
x2 = 0.4723 | 1189.98 ± 0.72 | 1185.87 ± 0.71 | 1182.12 ± 0.71 | 1177.75 ± 0.7 | 1574 ± 2.2 | 1560.4 ± 2.2 | 1544.5 ± 2.2 | 1533.1 ± 2.2
x2 = 0.5213 | 1202.28 ± 0.78 | 1198.15 ± 0.77 | 1194.47 ± 0.77 | 1190.17 ± 0.76 | 1582.4 ± 2.2 | 1568.3 ± 2.2 | 1552.8 ± 2.2 | 1541.1 ± 2.2
x2 = 0.5731 | 1214.14 ± 0.85 | 1209.97 ± 0.84 | 1206.44 ± 0.83 | 1202.2 ± 0.83 | 1589.6 ± 2.3 | 1575.5 ± 2.2 | 1561.4 ± 2.2 | 1549.5 ± 2.2
x2 = 0.6212 | 1224.23 ± 0.91 | 1220.11 ± 0.9 | 1216.67 ± 0.9 | 1212.48 ± 0.89 | 1596.2 ± 2.3 | 1582.6 ± 2.3 | 1568.1 ± 2.3 | 1557.4 ± 2.3
x2 = 0.6719 | 1234.08 ± 0.98 | 1230 ± 0.97 | 1226.63 ± 0.96 | 1222.55 ± 0.96 | 1603.2 ± 2.3 | 1589.2 ± 2.3 | 1575.5 ± 2.3 | 1564.3 ± 2.3
x2 = 0.7224 | 1243.17 ± 1.1 | 1239.16 ± 1 | 1235.85 ± 1 | 1231.85 ± 1 | 1609.3 ± 2.4 | 1595.2 ± 2.4 | 1583.1 ± 2.4 | 1571.5 ± 2.4
x2 = 0.7737 | 1251.76 ± 1.1 | 1247.81 ± 1.1 | 1244.54 ± 1.1 | 1240.61 ± 1.1 | 1615.2 ± 2.4 | 1601.3 ± 2.4 | 1589.7 ± 2.4 | 1578.5 ± 2.4
x2 = 0.8219 | 1259.31 ± 1.2 | 1255.42 ± 1.2 | 1252.16 ± 1.2 | 1248.26 ± 1.2 | 1619.9 ± 2.5 | 1607 ± 2.5 | 1595.8 ± 2.4 | 1584.8 ± 2.4
x2 = 0.8764 | 1267.33 ± 1.3 | 1263.49 ± 1.3 | 1260.17 ± 1.3 | 1256.28 ± 1.2 | 1625.1 ± 2.5 | 1612.2 ± 2.5 | 1602 ± 2.5 | 1590.5 ± 2.5
x2 = 0.9223 | 1273.71 ± 1.4 | 1269.86 ± 1.3 | 1266.47 ± 1.3 | 1262.53 ± 1.3 | 1628.2 ± 2.5 | 1616 ± 2.5 | 1605.5 ± 2.5 | 1594 ± 2.5
x2 = 0.9349 | 1275.41 ± 1.4 | 1271.55 ± 1.4 | 1268.13 ± 1.4 | 1264.16 ± 1.3 | 1628.9 ± 2.5 | 1616.8 ± 2.5 | 1606.2 ± 2.5 | 1594.8 ± 2.5

Reference: the NIST ThermoML archive (doi:10.1016/j.jct.2012.07.007)
